Values after ≈ are worked out from the molar mass of the structure shown. Where a name gives a salt, the structure may show the parent alone.
What was measured:
[1] = Cytotoxicity against chick embryo fibroblasts after 24 hrs by microscopic analysis; type: cell-based, Gallus gallus, Fibroblast; conditions: chicken
Newcastle disease virus [2] = assay: Antiviral activity against Newcastle disease virus infected in chick embryo fibroblasts assessed as suppression of virus multiplication to 1% by measuring hemagglutinating activity by tube assay method; type: functional; conditions: avian paramyxovirus 1
Newcastle disease virus [3] = assay: Ratio of amantadine hydrochloride MIC to compound MIC for Newcastle disease virus infected in chick embryo fibroblasts; type: functional, avian paramyxovirus 1

Compound	MCC at 24 h [1]	MIC (Newcastle disease virus [2])	Ratio (Newcastle disease virus [3])
O=P(O[C@H]1C[C@H]2C[C@H]1[C@@H]1CCC[C@H]21)(O[C@H]1C[C@H]2C[C@H]1[C@@H]1CCC[C@H]21)O[C@H]1C[C@H]2C[C@H]1[C@@H]1CCC[C@H]21	400 µM	1000 µM (≈ 501 µg/mL)	
O=P(O)(O[C@H]1C[C@H]2C[C@H]1[C@@H]1CCC[C@H]21)O[C@H]1C[C@H]2C[C@H]1[C@@H]1CCC[C@H]21	550 µM	550 µM (≈ 202 µg/mL)	2
NC12CC3CC(CC(C3)C1)C2 [AMANTADINE HYDROCHLORIDE]	1300 µM	1300 µM	
